In assay [1] the test system is RRE-IIB RNA. In words: Isothermal titration calorimetry (ITC) of peptide binding to RRE-IIB. The following applies: for N1 / N2: ITC stoichiometry; for N1 / ΔH1 (binding enthalpy ΔH) / TΔS1: first site; for N1 / N2 / ΔH1 (binding enthalpy ΔH) / Ka2 / TΔS2 / ΔH2 / TΔS1: two-site model; for N2 / Ka2 / TΔS2 / ΔH2: second (low affinity) site; for ΔH1 (binding enthalpy ΔH): 350 µM peptide into 10 µM RRE-IIB, corrected for heat of dilution, pH 7.5, 50 mM NaCl; for Ka1 / TΔS1: RSG-1.2 mutants; for Ka1: high affinity site, model for two set of binding sites, 10 mM sodium cacodylate, 0.1 mM EDTA, 50 mM NaCl, ± = SD of data from fitted curve; for TΔS1: derived from fits of ITC profiles. Further details: species or system HIV-1. The method, then: (§1) Fluorescence labeled RNA having 2-Aminopurine (2-AP) at U72 position of RRE-IIB was obtained from Ocimum Biosolutions Ltd. Netherlands. All the stock solutions were prepared in Milli-Q water. Other reagents were commercially available and were of analytical grade quality and used without any further purification. All the experiments were performed using 10 mM sodium cacodylate buffer containing 0.1 mM EDTA and 50 mM NaCl at pH 7.5.
(§2) Isothermal titration calorimetry measurements were conducted at 25°C on a Microcal VP-ITC (Microcal, Inc.; Northampton MA). Titration of RRE-IIB with Rev as well as RSG-1.2 were done by injecting 4 µL aliquots of 350 µM peptide from a 250 µL rotating syringe (350 rpm) into an isothermal sample chamber containing 1.5 mL of 10 µM RRE-IIB solution. Each experiment of this type was accompanied by the corresponding control experiment in which 350 µM peptide were injected into a solution of buffer alone. The duration of each injection was 8 s and the delay between the injections was 300 s, the initial delay prior to the first injection was 200 s. Each injection generated a heat burst curve (microcalories/second vs. seconds) and the area under each curve was determined by integration [using origin version 7.0 software (Microcal, Inc.; Northampton, MA)] to obtain the measure of heat associated with that injection. The buffer corrected ITC profiles for the binding of Rev and RSG-1.2 were fit with a model for two set of binding site. The net enthalpy change for RRE-IIB stem loop interaction with Rev and RSG-1.2 were determined by subtraction of the heat of dilution.

Assay [2] relates to RRE-IIB RNA. In words: Temperature dependent UV melting of RRE-IIB with peptides. In kind it is binding, HIV-1. The following applies: pH 7.5. The procedure:
Temperature dependent UV melting experiments were carried out using a Cary 100 (Varian) Spectrophotometer equipped with thermoelectrically controlled cell holder. A quartz cell of 1cm path length was used for all absorbance studies. Temperature dependent absorption spectra were obtained at 260 nm with rate of 0.5°C/min. increase in temperature, from 40 to 95°C. In these experiments the concentration of RNA was kept 1 µM and peptide concentration was increased from 0–3 µM. The buffer solution contained 10 mM sodium cacodylate buffer, 0.1 mM EDTA and 50 mM NaCl at pH 7.5. For each optically detected transition, the melting temperature (Tm) was determined using previously described methods.

Assay [3] deals with RRE-IIB RNA. Kind of assay: CD spectroscopy of RRE-IIB with peptides. The following applies: 5 µM RNA, pH 7.5, 25°C. Type of assay: binding, HIV-1. The method, then: Circular dichroism (CD) spectra were recorded on a Jasco spectropolarimeter (model J815, Japan) equipped with a thermoelectrically controlled cell holder. The cuvette used for acquiring spectra was of 1 cm in path length. CD spectra were recorded from 350 nm to 200 nm; with accumulation of 3 and averaged at 25°C. The buffer solution contained 10 mM sodium cacodylate buffer, 0.1 mM EDTA and 50 mM NaCl at pH 7.5. In a titration experiment RNA concentration was fixed at 5 µM and the peptides concentration varied from 0–25 µM.

Another assay has as its system 2-AP labeled RRE-IIB RNA. In words: Fluorescence titration of 2-AP labeled RRE-IIB with peptides. As to conditions: pH 7.5, 25°C. Type of assay: binding, HIV-1. The method, then:
as §1
Steady state fluorescence spectra were collected using Xe 900 lamp of Edinburgh instruments Spectrofluorometer equipped with thermoelectrically controlled cell holders. The excitation of the sample was done at 320 nm wavelength and fluorescence spectra were collected from 340 nm to 450 nm. The excitation as well as emission slit width were kept at 3 nm. A quartz cell of 1 cm path length, transparent from four sides, was used. All the experiments were conducted at 25°C. RNA concentration was fixed at 0.1 µM and the peptide concentration was varied from 0–0.3 µM. The buffer solution contained 10 mM sodium cacodylate buffer, 0.1 mM EDTA and 50 mM NaCl at pH 7.5 and 25°C. The changes in the fluorescence intensity at 370 nm were monitored as a function of increase in peptide concentration. For data analysis, the observed fluorescence intensity was considered as the sum of the weighted contributions from a peptide bound and an unbound RNA form. [drawing 1] (1)
Where F corresponds to the observed fluorescence intensity at each titrant concentration, F0 and Fb are the respective fluorescence intensities of initial and final states of titration, α is the mole fractions of RNA in bound form. Assuming 1∶1 stoichiometry for the interaction, it can be shown that: [drawing 2] (2)
Where Ka is the association constant, [R0] is the total RNA concentration and [Lt] is the added peptide concentration. From Equations (1) and (2), it can be shown that: [drawing 3] (3)
Where ΔF = F – F0 and ΔFmax = Fmax – F0
The free energy of binding was calculated from the standard relation ΔG = -RTlnKa where R is the universal gas constant and T is the absolute temperature in Kelvin.
Fluorescence spectroscopy is a useful tool for determining binding constants of two interacting partners. We employed this tool for determining binding affinity of Rev and RSG-1.2 with the RRE-IIB RNA stem loop structure. In order to carry out fluorescence titration, RRE-IIB RNA was fluorescently labeled by incorporating 2-Aminopurine (2-AP) at position U72. […] All the fluorescence titrations were performed using 10 mM sodium cacodylate buffer containing 0.1 mM EDTA and 50 mM NaCl at pH 7.5 and at 25°C. […] Normalized change in fluorescence intensity at 370 nm was plotted against molar concentration of peptide. […]

For assay [4], the system named is RRE-IIB RNA. Kind of assay: Temperature dependent ITC (heat capacity change). As to conditions: ITC at 10, 20, 25 and 35°C, pH 7.5. In kind it is binding, HIV-1. The method, then: as §2
Heat capacity changes (ΔCp), that accompany the peptide binding to RNA can be determined by performing temperature dependent ITC experiments under same buffer conditions. […]

Several values for one entry are separate records, joined by “and”; a condition that tells them apart may be missing. Identical values can stand only once. Entries after “also recorded” stand apart in the source; their conditions may differ.

Consider DRRRRGSRPSGAERKRRRAAAA [R15K], for which, in the assay on RRE-IIB RNA [1] (pH 7.5, 25°C), the N1 was found to be 1.6, the N2 came to 1.6 and the TΔS1 amounted to 1.3 ± 0.2 kcal/mol. Also, the “ΔH1 (binding enthalpy ΔH)” value with RRE-IIB RNA [1] (ITC, 25°C) was -8.7 ± 0.1 kcal/mol. Also, in the assay with RRE-IIB RNA [1] (ITC, pH 7.5, 25°C), the Ka1 was 2.4±0.7 M^−1 × 10^7, the Ka2 is 7.0±0.2 M^−1 × 10^5, the TΔS2 turned out to be 5.5 ± 0.1 kcal/mol and the ΔH2 is -2.4 ± 0.3 kcal/mol.

Regarding DRRRRGSRPSGAERRDRRAAAA [R15D], in the assay with RRE-IIB RNA [1] (pH 7.5, 25°C), the N1 was found to be 1.5, the N2 is 1.5 and the TΔS1 turned out to be 6.2 ± 0.3 kcal/mol. Besides, the “ΔH1 (binding enthalpy ΔH)” value in the assay with RRE-IIB RNA [1] (ITC, 25°C) was -3.9 ± 0.1 kcal/mol. In the assay with RRE-IIB RNA [1] (ITC, pH 7.5, 25°C), the Ka1 was 2.9±0.4 M^−1 × 10^7, the Ka2 was 14.2±0.2 M^−1 × 10^5, the TΔS2 turned out to be 7.3 ± 0.4 kcal/mol and the ΔH2 was -1.0 ± 0.1 kcal/mol.

For the sequence “DTRQARRNRRRRWRERQRAAAAR [Rev, minimal arginine rich Rev peptide of HIV-1 ([…])]”, the “ΔTm (increase in Tm of RRE-IIB; Tm of RNA alone 67.3°C)” value with RRE-IIB RNA [2] (peptide to RNA molar ratio 1∶1, 1 µM RNA, 260 nm, 0.5°C/min, 10 mM sodium cacodylate, 50 mM NaCl, 0.1 mM EDTA) is 1 °C. The “change in Tm at higher peptide ratios” value with RRE-IIB RNA [2] (ratios above 1∶1 (2∶1 and 3∶1), 1 µM RNA) is reported as “negligible changes were observed”. For the same sequence, the “ΔH1 (binding enthalpy ΔH)” value in the assay with RRE-IIB RNA [1] (ITC, 25°C) was “≈ 0 kcal/mol and 0 kcal/mol”. The “heat changes / enthalpy of binding (in words)” value in the assay on RRE-IIB RNA [1] (ITC, 25°C, pH 7.5) is listed as “small; also recorded: almost zero enthalpy of interaction; also recorded: negligible enthalpy”. The “TΔS1 (TΔS)” value in the assay on RRE-IIB RNA [1] (calculated by ΔG = ΔH − TΔS from fluorescence Ka and ITC ΔH (footnote c), pH 7.5, 25°C) is 10.2±0.2 kcal/mol and 10.2±0.2 ^c kcal/mol. Moreover, in the assay with RRE-IIB RNA [1] (calculated by ΔG = ΔH − TΔS, 25°C, pH 7.5), the TΔS is 10.2 ± 0.2 kcal/mol. For the same sequence, in the assay on RRE-IIB RNA [1] (from ΔH and TΔS, 25°C, pH 7.5), the thermodynamic driving force result is “essentially entropically driven; also recorded: exclusively entropy driven”. The “CD signal of RRE-IIB at 240 nm and 210 nm” value in the assay with RRE-IIB RNA [3] (peptide 0–25 µM (up to 5∶1), 10 mM sodium cacodylate, 50 mM NaCl, 0.1 mM EDTA) is “became more negative at 240 nm and 210 nm”. Also, in the assay with RRE-IIB RNA [3] (up to 5∶1 peptide), the “CD signal of RRE-IIB at 265 nm” value was “no significant change was observed at 265 nm”. Moreover, the “change in fluorescence intensity of 2-AP RRE-IIB” value with 2-AP labeled RRE-IIB RNA (0.1 µM RNA, 370 nm) is “fluorescence intensity increased upon addition of peptide”. Further, the “association constant Ka” value with 2-AP labeled RRE-IIB RNA (2-AP at U72, 0.1 µM RNA, 370 nm, 10 mM sodium cacodylate, 0.1 mM EDTA, 50 mM NaCl, fit with equation 3 (1∶1)) is 3.1±0.4×10^7 M^−1. Moreover, the Ka1 in the assay on 2-AP labeled RRE-IIB RNA (fluorescence binding studies (footnote b), 2-AP at U72, 0.1 µM RNA, peptide 0–0.3 µM, ex 320 nm/em 370 nm, 10 mM sodium cacodylate, 0.1 mM EDTA, 50 mM NaCl, 1∶1 fit) is 3.1±0.4 ^b M^−1 × 10^7. In addition, the “ΔG (Gibb's free energy of binding)” value in the assay on 2-AP labeled RRE-IIB RNA (ΔG = -RTlnKa, fluorescence Ka) is -10.2 ± 0.1 kcal/mol. Besides, in the assay with RRE-IIB RNA [4], the “change in heat capacity (in words)” value is “essentially no change in heat capacity” and the “temperature dependence of binding enthalpy” value was “does not show any change in enthalpy of binding; also recorded: no change in binding enthalpy”.

The values are drawn from PMC3154333, “Specificity of RSG-1.2 Peptide Binding to RRE-IIB RNA Element of HIV-1 over Rev Peptide Is Mainly Enthalpic in Origin” (PLoS ONE, 2011).
